The conditions of data set [1]: compared with NH4-acetate or Ca-acetate; solubility data available in the literature; cited from earlier work.
Data set [2] can be described thus: T1 relaxation in human full blood. The class given is physicochemical. The settings on record: human full blood at 37° C. The text has this:
The amount of alanine, bicarbonate and lactate is dependent on the metabolic status of the tissue under investigation.

This is an account of results in patent publication US20100233096A1, “METHOD TO PRODUCE HYPERPOLARISED CARBOXYLATES AND SULPHONATES” (priority 2006, published 2010).

The structures appear in SMILES notation.

Turning to `CC(=O)[O-].[Cs+]` [Cs-acetate], the solubility in water result in data set [1] was “higher solubility in water”.

Regarding `CC(=O)[13C](=O)O` [^13C-pyruvate], the T1 relaxation entry in data set [2] is “about 42 s”.
